Source: patent US7365080B2, “Pharmaceutical compositions comprising thieno[2,3-c]pyridine derivatives and use thereof” (Rimonyx Pharmaceuticals Ltd., priority 2003, dated 2008)

Molecular target: T1, L-Selectin (Homo sapiens, UniProt P14151)
T1 construct: purchased Research and Development Systems 728-LS
T1 sequence (P14151 39-332 limits assumed): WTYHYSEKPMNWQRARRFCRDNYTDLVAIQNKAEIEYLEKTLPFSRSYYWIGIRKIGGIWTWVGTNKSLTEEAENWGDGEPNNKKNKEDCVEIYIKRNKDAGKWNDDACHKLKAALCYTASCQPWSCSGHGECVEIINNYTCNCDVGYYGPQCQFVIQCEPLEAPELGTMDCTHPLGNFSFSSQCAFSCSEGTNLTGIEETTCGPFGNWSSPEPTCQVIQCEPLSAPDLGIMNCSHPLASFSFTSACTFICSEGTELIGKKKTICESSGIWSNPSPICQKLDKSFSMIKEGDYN
Assay: ELISA: inhibition of L-selectin/IgG binding to immobilized heparin (Heparin-BSA)
Conditions: L-Selectin binding to heparin
Experimental: The inhibitory effect of the compounds of the present invention can be evaluated by several methods in vitro. One assay for measuring GAG-ECAM binding, exemplified herein below, detects the binding of L selectin/IgG to immobilized heparin. Another assay utilizes immobilized L-selectin, or L-selectin fused to protein domains other than IgG. The amount of bound L-selectin is determined by an ELISA assay using, for example, a monoclonal antibody raised against L-selectin, which is conjugated to horseradish peroxidase. […] The Dregg-55 antibody was also shown to inhibit L-selectin-dependent adhesion in vitro, neutrophil accumulation in vitro and inflammation in vivo (Co M. S. et al, Immunotechnology 493: 253-266, 1999).
An in vitro assay was used to assess the ability of test compounds according to formula I to inhibit the interactions of L-selectin with HS-GAGs. The assay was suitable for determining the concentration required for 50% inhibition (IC-50) for each specific compound. In the assay, the GAG used was heparin. Thus, porcine intestinal mucosa heparin conjugated to Bovine Serum Albumin (Heparin-BSA; Sigma Cat. No. H0403) at […] in Phosphate Buffered Saline (PBS; pH 6.5) was added to a 96 well polystyrene ELISA plate (NUNC Cat. No. 442404; 0.1 ml per well) and incubated Over Night (ON) at 4° C. Following the incubation, the plate was washed thoroughly, by immersion, with de-ionized water and PBS (pH 6.5). The ELISA plate was then blocked with BSA (ICN Cat. No.160069, 3%, 200 μl per well) for 1 hour at Room Temperature (RT). Following blocking, the plate was washed with de-ionized water, and then with PBS (pH 6.5) containing Tween 20 (Sigma Cat. No. P-1379, 0.05%). Compounds were synthesized or purchased from ChemDiv Labs (San Diego, Calif.), dissolved in DMSO, diluted in PBS and added to the wells at various concentrations in the range of 0.01 to 300 μM. Recombinant Human L-Selectin/IgG (Research and Development Systems Cat. No.728-LS) dissolved in PBS supplemented with BSA (0.1%) and calcium chloride (1 mM) was added to the ELISA plate (100 μl per well) and incubated for 60 minutes at RT with shaking. Following incubation, the plate was washed with de-ionized water and three times with PBS (pH 6.5) containing Tween 20. Anti-Human IgG Peroxidase Conjugate (1:5000; Sigma Product No. A8667) diluted in PBS supplemented with BSA (0.1%) and calcium chloride (1 mM) was added to the ELISA plate (100 μl per well) and incubated for 30 minutes at RT with shaking. The plate was then washed with de-ionized water and three times with PBS (pH 6.5) containing Tween 20. The peroxidase substrate cromogen, TMB (Dako Cat. No. S1599) was added (100 μl per well) to the ELISA plate and incubated at room temperature. After 15 minutes ELISA Stop Solution (hydrochloric acid 1N, sulfuric acid 3N) was added (200 μl per well) to stop the peroxidase catalyzed colorimetric reaction. The Optical Density (OD) of the samples was measured at 450 nm using an ELISA plate reader (Dynatech MR5000). Data were analyzed with Graphpad Prism software and IC-50 values were established. The P-selectin assay was carried out in a similar fashion, except that Recombinant Human P-Selectin/IgG (Research and Development Systems Cat.No.137-PS) was used.

| SMILES | IC50 [µM] |
| --- | --- |
| CCN(CC)S(=O)(=O)c1ccc(C(=O)Nc2sc3c(c2-c2nc4ccccc4s2)CCN(C(C)C)C3)cc1 [Compound 3] | 10 |
| CC(C)N1CCc2c(sc(NC(=O)c3ccc(S(=O)(=O)N4CCOCC4)cc3)c2-c2nc3ccccc3s2)C1 [Compound 10] | 25 |
| CCOC(=O)c1c(NC(=O)c2ccc(S(=O)(=O)N3CCCc4ccccc43)cc2)sc2c1CCN(C(C)C)C2 [Compound 16] | 11 |
| CCOC(=O)c1c(NC(=O)c2ccc(S(=O)(=O)N3CCCCCC3)cc2)sc2c1CC(C)(C)NC2(C)C [Compound 18] | 11 |
| C=CCN(CC=C)S(=O)(=O)c1ccc(C(=O)Nc2sc3c(c2C(=O)OC)CC(C)(C)NC3(C)C)cc1 [Compound 19] | 43 |
| CCOC(=O)c1c(NC(=O)c2ccc(S(=O)(=O)N(CC)CC)cc2)sc2c1CC(C)(C)NC2(C)C [Compound 20] | 26 |
| CN(C1CCCCC1)S(=O)(=O)c1ccc(C(=O)Nc2sc3c(c2C(N)=O)CC(C)(C)NC3(C)C)cc1 [Compound 21] | 36 |
| CC1(C)Cc2c(sc(NC(=O)c3ccc(S(=O)(=O)N4CCCc5ccccc54)cc3)c2C(N)=O)C(C)(C)N1 [Compound 25] | 12 |
| CCN1CCc2c(sc(NC(=O)c3ccc(S(=O)(=O)N(C)c4ccccc4)cc3)c2C(=O)NC)C1 [Compound 27] | 9 |

Same assay, conditions: L-Selectin binding to heparin; 50 μM

| SMILES | inhibition at 50 µM [%] |
| --- | --- |
| CCN(CC)S(=O)(=O)c1ccc(C(=O)Nc2sc3c(c2-c2nc4ccccc4s2)CCN(C)C3)cc1 [Compound 2] | 60 |
| COCCN(CCOC)S(=O)(=O)c1ccc(C(=O)Nc2sc3c(c2-c2nc4ccccc4s2)CCN(C)C3)cc1 [Compound 4] | 43 |
| CN1CCc2c(sc(NC(=O)c3ccc(S(=O)(=O)N(C)c4ccccc4)cc3)c2-c2nc3ccccc3s2)C1 [Compound 6] | 44 |
| CCN1CCc2c(sc(NC(=O)c3ccc(S(=O)(=O)N4CCCCCC4)cc3)c2-c2nc3ccccc3s2)C1 [Compound 8] | 46 |
| CN1CCc2c(sc(NC(=O)c3ccc(S(=O)(=O)N4CCOCC4)cc3)c2-c2nc3ccccc3s2)C1 [Compound 9] | 52 |
| CCCCN(CC)S(=O)(=O)c1ccc(C(=O)Nc2sc3c(c2C(N)=O)CCN(C(C)C)C3)cc1 [Compound 12] | 55 |
| CC(C)N1CCc2c(sc(NC(=O)c3ccc(S(=O)(=O)N(C)c4ccccc4)cc3)c2C(N)=O)C1 [Compound 13] | 68 |
| CC1CC(C)CN(S(=O)(=O)c2ccc(C(=O)Nc3sc4c(c3C(N)=O)CCN(C(C)C)C4)cc2)C1 (stereo not shown) [Compound 14] | 35 |
| CCCCN(C)S(=O)(=O)c1ccc(C(=O)Nc2sc3c(c2C(=O)OCC)CCN(C(C)C)C3)cc1 [Compound 15] | 40 |
| CCOC(=O)c1c(NC(=O)c2ccc(S(=O)(=O)N3CCN(C(=O)OCC)CC3)cc2)sc2c1CCN(C(C)C)C2 [Compound 17] | 21 |
| CCN(CC)S(=O)(=O)c1ccc(C(=O)Nc2sc3c(c2C(N)=O)CC(C)(C)NC3(C)C)cc1 [Compound 22] | 35 |
| CCCCN(C)S(=O)(=O)c1ccc(C(=O)Nc2sc3c(c2C(N)=O)CC(C)(C)NC3(C)C)cc1 [Compound 23] | 39 |
| CCOC(=O)N1CCN(S(=O)(=O)c2ccc(C(=O)Nc3sc4c(c3C(N)=O)CC(C)(C)NC4(C)C)cc2)CC1 [Compound 24] | 29 |
| COCCN(CCOC)S(=O)(=O)c1ccc(C(=O)Nc2sc3c(c2C(N)=O)CC(C)(C)NC3(C)C)cc1 [Compound 26] | 23 |
| CCN1CCc2c(sc(NC(=O)c3ccc(S(=O)(=O)N(CC)Cc4ccccc4)cc3)c2C(N)=O)C1 [Compound 28, 2-[[4-[[ethyl(phenylmethyl)amino]sulfonyl]benzoyl]amino]-6-ethyl-4,5,6,7-tetrahydrothieno[2,3-c]pyridine-3-carboxamide] | 63 |
| CCN1CCc2c(sc(NC(=O)c3ccc(S(=O)(=O)N4CCN(C)CC4)cc3)c2C(N)=O)C1 [Compound 29, 2-[[4-[(4-methyl-1-piperazinyl)sulfonyl]benzoyl]amino]-6-ethyl-4,5,6,7-tetrahydrothieno[2,3-c]pyridine-3-carboxamide] | 30 |

| SMILES | inhibition at 50 µM [%] |
| --- | --- |
| CCCN(CCC)S(=O)(=O)c1ccc(C(=O)Nc2sc3c(c2-c2nc4ccccc4s2)CCN(C)C3)cc1 [Compound 30] | 21 |
| CCCCN(CCCC)S(=O)(=O)c1ccc(C(=O)Nc2sc3c(c2-c2nc4ccccc4s2)CCN(C)C3)cc1 [Compound 31] | 27 |
| CCCCN(C)S(=O)(=O)c1ccc(C(=O)Nc2sc3c(c2-c2nc4ccccc4s2)CCN(C)C3)cc1 [Compound 32] | 26 |
| CCCCN(CC)S(=O)(=O)c1ccc(C(=O)Nc2sc3c(c2-c2nc4ccccc4s2)CCN(C)C3)cc1 [Compound 33] | 21 |
| C=CCN(CC=C)S(=O)(=O)c1ccc(C(=O)Nc2sc3c(c2-c2nc4ccccc4s2)CCN(C)C3)cc1 [Compound 34] | 25 |
| CN1CCc2c(sc(NC(=O)c3ccc(S(=O)(=O)N4CCCC4)cc3)c2-c2nc3ccccc3s2)C1 [Compound 35] | 24 |
| CN1CCc2c(sc(NC(=O)c3ccc(S(=O)(=O)N4CCCCC4)cc3)c2-c2nc3ccccc3s2)C1 [Compound 36] | 26 |
| CC1CCCN(S(=O)(=O)c2ccc(C(=O)Nc3sc4c(c3-c3nc5ccccc5s3)CCN(C)C4)cc2)C1 (stereo not shown) [Compound 37] | 23 |
| CC1CCN(S(=O)(=O)c2ccc(C(=O)Nc3sc4c(c3-c3nc5ccccc5s3)CCN(C)C4)cc2)CC1 [Compound 38] | 33 |
| CC1CC(C)CN(S(=O)(=O)c2ccc(C(=O)Nc3sc4c(c3-c3nc5ccccc5s3)CCN(C)C4)cc2)C1 (stereo not shown) [Compound 39] | 24 |
| CCCN(CCC)S(=O)(=O)c1ccc(C(=O)Nc2sc3c(c2-c2nc4ccccc4s2)CCN(CC)C3)cc1 [Compound 40] | 25 |
| C=CCN(CC=C)S(=O)(=O)c1ccc(C(=O)Nc2sc3c(c2-c2nc4ccccc4s2)CCN(CC)C3)cc1 [Compound 41] | 25 |
| CCCCN(CC)S(=O)(=O)c1ccc(C(=O)Nc2sc3c(c2-c2nc4ccccc4s2)CCN(C(C)C)C3)cc1 [Compound 42] | 27 |
| C=CCN(CC=C)S(=O)(=O)c1ccc(C(=O)Nc2sc3c(c2-c2nc4ccccc4s2)CCN(C(C)C)C3)cc1 [Compound 43] | 17 |
| CC(C)N1CCc2c(sc(NC(=O)c3ccc(S(=O)(=O)N4CCCCC4)cc3)c2-c2nc3ccccc3s2)C1 [Compound 44] | 29 |
| CC(C)N1CCc2c(sc(NC(=O)c3ccc(S(=O)(=O)N4CCCCC4C)cc3)c2-c2nc3ccccc3s2)C1 (stereo not shown) [Compound 45] | 24 |

Tested on: Human T-lymphocytes on human endothelial cells
Assay: T-lymphocyte rolling on endothelial cells under shear flow
Type: cell-based
Conditions: Homo sapiens; 25 μM; high shear flow; read-out: inhibition of cell rolling
Experimental: Human T-lymphocytes were passed over a layer of human endothelial cells according to the method of Lawrence and Springer (Cell 65: 859-873, 1991). At high shear flow, migrating T-lymphocytes adhered transiently and intermittently to the endothelial cells as a consequence of HS-GAG-ECAM interaction. The resulting T-cell rolling was recorded by video camera and the number of rolling cells per defined area during a constant period of time was determined. Soluble heparin (competitor of cell surface GAGs) abolished T-cell rolling under high shear flow conditions. Compounds no. 1, 11 and 25, each at 25 μM, inhibited cell rolling by 90, 90 and 70%, respectively.

| SMILES | inhibition at 25 µM [%] |
| --- | --- |
| CC1(C)Cc2c(sc(NC(=O)c3ccc(S(=O)(=O)N4CCCc5ccccc54)cc3)c2C(N)=O)C(C)(C)N1 [Compound 25] | 70 |

Same assay, conditions: test compound (25 μM); shear flow

| SMILES | % rolling [%] |
| --- | --- |
| CC1(C)Cc2c(sc(NC(=O)c3ccc(S(=O)(=O)N4CCCc5ccccc54)cc3)c2C(N)=O)C(C)(C)N1 [Compound 25] | <10 |
